Results reported in patent publication US7445764B1, “Carrier-drug conjugate” (priority 1999, dated 2008).

Columns and labels:
[1] = tested on: RENCA, renal cell carcinoma; conditions: female, Balb/c, mouse, in vivo
From the text: (§1) Animals: Balb/c mice, female; tumor: RENCA, renal cell carcinoma; therapy: day (d) 10, 14, 18, 21 intravenous (i.v.); end of trial: d 25.
(§2) The dose is relative to the quantity of doxorubicin present.

[2] = tested on: RENCA, renal cell carcinoma; assay: RENCA (renal cell carcinoma) model, antitumoral action at approximately equitoxic dose; conditions: RENCA in Balb/c mice
From the text: as §1, §2

[3] = target: HSA-Cys^34-2 (conjugate of DTT-treated human serum albumin with doxorubicin-maleinimide-peptide derivative 2) (UniProt P02768)
Sequence of HSA-Cys^34-2 (conjugate of DTT-treated human serum albumin with doxorubicin-maleinimide-peptide derivative 2) (P02768 whole entry, looked up, tested part not stated): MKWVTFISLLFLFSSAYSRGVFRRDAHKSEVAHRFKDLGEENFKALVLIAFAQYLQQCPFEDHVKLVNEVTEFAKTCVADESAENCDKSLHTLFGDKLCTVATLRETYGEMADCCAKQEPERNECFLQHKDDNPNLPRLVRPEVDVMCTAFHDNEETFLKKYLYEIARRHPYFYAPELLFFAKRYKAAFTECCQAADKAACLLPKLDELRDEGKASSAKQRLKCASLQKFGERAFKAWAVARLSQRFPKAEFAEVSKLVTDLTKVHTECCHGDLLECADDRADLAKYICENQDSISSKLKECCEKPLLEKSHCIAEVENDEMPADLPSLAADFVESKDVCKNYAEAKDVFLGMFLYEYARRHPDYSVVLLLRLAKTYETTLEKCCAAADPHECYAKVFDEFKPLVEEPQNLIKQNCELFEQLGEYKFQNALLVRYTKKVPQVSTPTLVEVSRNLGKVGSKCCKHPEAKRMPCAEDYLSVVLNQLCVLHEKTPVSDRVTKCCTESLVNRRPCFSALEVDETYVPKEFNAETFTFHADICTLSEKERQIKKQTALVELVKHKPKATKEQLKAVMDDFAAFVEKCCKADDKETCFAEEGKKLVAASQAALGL

Row | Molecule | Mortality (d) [1] | Visible renal tumors ([2]; FIG. 3A) | Number of pulmonary metastases, average ([2]; FIG. 3B) [metastases per mouse] | Complete remission ([2]; i.v. d 10, 14, 18, 21, end of trial d 25, approximately equitoxic doses) | liberation of DOXO-Gln-Gly-Ala-Ile due to cleavage with MMP 9 (HPLC gel chromatography, t=0 against t=30 min) [3]
1 | COc1cccc2c1C(=O)c1c(O)c3c(c(O)c1C2=O)C[C@@](O)(C(=O)CO)C[C@@H]3O[C@H]1C[C@H](N)[C@H](O)[C@H](C)O1 [Doxorubicin, doxorubicin] | 1 | plainly visible renal tumors were observed in all animals | ~100 | no complete remissions | –
2 | matrix metalloprotease MMP 9 (trypsine/aprotinine-activated, from Calbiochem, Germany) | – | – | – | – | The liberation of DOXO-Gln-Gly-Ala-Ile due to cleavage with MMP 9 was confirmed by HPLC gel chromatography
